# Test results: patent publication US12643918B2, “Thiadiazolone derivatives and their use as AMPK agonists for the treatment of diabetes and related disorders” (Betagenon AB, priority 2020, dated 2026)
# “Also recorded” adds a separate entry of the source. Like-named read-outs stand apart in the source and are kept apart here.
# How the values were obtained:
# [1] = Single dose oral pharmacokinetic study of Compounds 1 and 3 in Sprague Dawley rats; type: in vivo
# Procedure: 10.0 mL of 2% w/v methyl cellulose solution in phosphate buffer (pH 7.5) was added to a 100 mL conical flask along with 1 g of 2 mm glass beads. The solution was vigorously stirred on a magnetic stirrer. 100 mg of Compound 1 was slowly added to the solution, and the solution was vigorously stirred for approximately 1 h. The pH of the formulation was measured to be 7.49. Each formulation was freshly prepared prior to administration to the animals. The final concentration of Compound 1 in of the formulation was 10 mg/mL. The formulation was administered at 5 mL/kg body weight.
# 10.0 mL of 2% w/v methyl cellulose solution in phosphate buffer (pH 7.5) was added to a 100 mL of conical flask together with 1 g of 2 mm glass beads. The solution was vigorously stirred on a magnetic stirrer. 134 mg of Compound 3 was slowly added to the solution, and the solution was vigorously stirred for approximately 1 h. The pH of the formulation was measured to be 7.44. Each formulation was freshly prepared prior to administration to the animals. The final concentration of Compound 3 in the formulation was 13.4 mg/mL, which is equivalent to 10 mg/mL of Compound 1. The formulation was administered at 5 mL/kg body weight.
# The doses of 50 mg/kg and 67 mg/kg b.w. for Compound 1 and Compound 3, respectively, were selected for comparison of equimolar doses.
# Adult healthy male Sprague Dawley rats aged 9 to 11 weeks were used for experimentation after a minimum three days of acclimatisation. Fed state animals were administered the formulation of Compound 1 or Compound 3 orally via gavage at a dose of 50 mg/kg or 67 mg/kg body weight, respectively.
# Under mild isoflurane anesthesia, blood specimens were collected by retro-orbital puncture method using capillary tubes into pre-labeled tubes containing anticoagulant (K2EDTA: 2 mg/mL blood) during the next 72 hours post-dosing, as detailed in Table 6. For blood sampling at multiple time points, the right and left eyes were used alternatively. Collected blood specimens were centrifuged at 6000 rpm, 4° C. for 10 minutes and the plasma samples were separated and stored at −80° C. until analysis.
# [2] = Stability of compounds in USP/phosphate buffer pH 7.40; type: physicochemical; settings: for % remaining compared to 0.0 min: Phosphate Buffer pH 7.40, 37° C., 5 μM; for Stability compared to Compound 1 (in words): mildly basic solutions (pH 7.4)
# Procedure: 5 μM solutions of Compounds 1, 3 and 5 in USP buffer (pH: 7.40) were prepared with 5 mM DMSO stock solutions.
# [3] = mice, Das et al. Reg Anesth Pain Med 2019, cited from earlier work
# [4] = Solubility of compounds at different pH; type: physicochemical; settings: for solubility at 2 h / solubility at 20 h: 30 °C, thermodynamic from solid, read-out: Absolute Solubility; for solubility at 2 h: 2 hours incubation; for solubility at 20 h: 20 hours incubation
# Procedure: Approximately 5 mg of each test compound (Compounds 1 and 5) was weighed in duplicate, and each weighed sample was transferred to a separate centrifuge tube containing 5 mL of the respective buffer. All the tubes were tightly stoppered and agitated at a constant rate at 30±1° C. using an orbital shaker.
# […] 50 μL of the buffer solution from each removed tube was transferred into a 10 mL tube and made up to the mark with diluent. Then 2.5 mL of the supernatant of each tube was transferred into a 50 mL tube and made up to […].
# The nominal concentration of the solution in each 50 mL tube was 5 μg/mL.
# Linearity solutions of 40 ng/mL to 10000 ng/mL were plotted.
# [5] = system: AMPK; experiment: Activation of AMPK: Western blot of p-T172 AMPK in INS-1E insulinoma cells; type: cell-based; settings: for ratio between p-T172 AMPK and non-phosphorylated AMPK: INS-1E cells, control = 1.00; for Phosphorylation of AMPK (T172) / AMPK activation (in words): cultured INS-1E cells, Western blot
# Procedure: INS-1E cells were cultivated as described in Steneberg et al., JCI Insight. 2018; 3(12):e99114. https://doi.org/10.1172/jci.insight.99114, using 5% instead of 10% fetal bovine serum when plated for treatment.
# Compound 3 was dissolved at 10 mM in DMSO and frozen at −20° C.
# Compound 5 was dissolved at 10 mM in a 50:50 water/DMSO mixture, incubated for 15 minutes at room temperature in ultrasonic bath (VWR ultrasonic cleaner), and stored at room temperature.
# The INS-1E cells were treated in serum free medium with increasing doses of Compounds 3 and 5 for 4 and 16 hours, respectively, in accordance with the methods described in Steneberg et al., JCI Insight. 2018; 3(12):e99114. https://doi.org/10.1172/jci.insight.99114.
# Western blot analysis of the INS-1E cells was performed as described in Steneberg et. al., JCI Insight. 2018; 3(12):e99114. https://doi.org/10.1172/jci.insight.99114. The cell lysates were passed through a 30-gauge needle, ˜8-times and centrifuged for 10 min at +4° C. at 14000 rpm. Quantified values for AMPKα, and phosphorylated-T172 AMPKα, were normalized toward the quantified values for β-Actin.
# [6] = plasma Compound 1 after oral Compound 1, 50 mg/kg b.w., fed male rats
# [7] = pH 9.2, aqueous buffer, Alkaline Borate Buffer, pH 9.20
# [8] = pH 4.5, aqueous buffer, Acetate Buffer, pH 4.50
# [9] = pH 7.4, aqueous buffer, Phosphate Buffer, pH 7.40
smiles,measurement,setting,value
"O=C(Nc1nc(=O)n(Cc2ccc(Cl)cc2)s1)c1ccc(Cl)cc1 [Compound 1, 4-chloro-N-[2-[(4-chlorophenyl)methyl]-3-oxo-1,2,4-thiadiazol-5-yl]benzamide]",concentration at 1 h,"[1]; male, Sprague Dawley, rat, plasma, 50 mg/kg b.w., after oral Compound 1, 50 mg/kg, 1.00 h",4240 ng/mL
same,concentration at 2 h,"[1]; male, Sprague Dawley, rat, plasma, 50 mg/kg b.w., after oral Compound 1, 50 mg/kg, 2.00 h",7990 ng/mL
same,concentration at 4 h,"[1]; male, Sprague Dawley, rat, plasma, 50 mg/kg b.w., after oral Compound 1, 50 mg/kg, 4.00 h",14000 ng/mL
same,concentration at 6 h,"[1]; male, Sprague Dawley, rat, plasma, 50 mg/kg b.w., after oral Compound 1, 50 mg/kg, 6.00 h",17000 ng/mL
same,concentration at 8 h,"[1]; male, Sprague Dawley, rat, plasma, 50 mg/kg b.w., after oral Compound 1, 50 mg/kg, 8.00 h",19300 ng/mL
same,concentration at 24 h,"[1]; male, Sprague Dawley, rat, plasma, 50 mg/kg b.w., after oral Compound 1, 50 mg/kg, 24.00 h",9440 ng/mL
same,concentration at 0 h,"[1]; male, Sprague Dawley, rat, plasma, after oral Compound 1, 50 mg/kg, 0.00 h",0 ng/mL
same,concentration at 0.25 h,"[1]; male, Sprague Dawley, rat, plasma, after oral Compound 1, 50 mg/kg, 0.25 h",620 ng/mL
same,concentration at 0.5 h,"[1]; male, Sprague Dawley, rat, plasma, after oral Compound 1, 50 mg/kg, 0.50 h",1980 ng/mL
same,concentration at 48 h,"[1]; male, Sprague Dawley, rat, plasma, after oral Compound 1, 50 mg/kg, 48.00 h",720 ng/mL
same,concentration at 72 h,"[1]; male, Sprague Dawley, rat, plasma, after oral Compound 1, 50 mg/kg, 72.00 h",0 ng/mL
same,AUCextrap,[1]; [6],2.33 ± 1.74%
same,AUCinf,[1]; [6],458.31 ± 154.77 µg·h/mL
same,AUClast,[1]; [6],449.40 ± 157.75 µg·h/mL
same,Cmax,[1]; [6],19600 ± 5540 ng/mL
same,MRTlast,[1]; [6],14.78 ± 0.68 h
same,T1/2,[1]; [6],8.42 ± 1.47 h
same,Tmax,[1]; [6],7.33 ± 1.16 h
same,% remaining compared to 0.0 min,[2]; 0.0 min,100.00%
same,% remaining compared to 0.0 min,[2]; 15 min,97.62%
same,% remaining compared to 0.0 min,[2]; 30 min,101.31%
same,% remaining compared to 0.0 min,[2]; 60 min,99.41%
same,% remaining compared to 0.0 min,[2]; 120 min,106.18%
same,Effect on pain (in words),[3]; listed as compound of formula II,effective at treating pain; also recorded: capable of treating pain
same,solubility at 2 h,[4]; [7],29 µg/mL
same,solubility at 20 h,[4]; [7],44 µg/mL
"O=C(/N=c1\sn(Cc2ccc(Cl)cc2)c(=O)n1COP(=O)([O-])[O-])c1ccc(Cl)cc1.[Na+].[Na+] [Compound 5, disodium {(5Z)-5-[(4-chlorobenzoyl)imino]-2-[(4-chlorophenyl)methyl]-3-oxo-1,2,4-thiadiazolidin-4-yl}methyl phosphate]",ratio between p-T172 AMPK and non-phosphorylated AMPK,"[5]; 2.5 μM, 16 h, 0.05% DMSO",1.29
same,ratio between p-T172 AMPK and non-phosphorylated AMPK,"[5]; 5 μM, 16 h, 0.05% DMSO",1.62
same,ratio between p-T172 AMPK and non-phosphorylated AMPK,"[5]; 10 μM, 16 h, 0.05% DMSO",3.21
same,Phosphorylation of AMPK (T172) / AMPK activation (in words),[5]; phosphate,increase phosphorylation of AMPK in a dose-dependent manner; also recorded: increase phosphorylated-T172 AMPK in a dose-dependent manner
same,% remaining compared to 0.0 min,[2]; 0.0 min,100.00%
same,% remaining compared to 0.0 min,[2]; 15 min,103.92%
same,% remaining compared to 0.0 min,[2]; 30 min,107.58%
same,% remaining compared to 0.0 min,[2]; 60 min,107.88%
same,% remaining compared to 0.0 min,[2]; 120 min,97.30%
same,Stability compared to Compound 1 (in words),[2],comparable stability to Compound 1
same,solubility at 2 h,[4]; [8],15 µg/mL
same,solubility at 20 h,[4]; [8],15 µg/mL
same,solubility at 2 h,[4]; [9],119 µg/mL
same,solubility at 20 h,[4]; [9],98 µg/mL
same,solubility at 2 h,[4]; [7],720 µg/mL
same,solubility at 20 h,[4]; [7],1240 µg/mL
same,solubility at 2 h,[4]; Ultrapure water,419 µg/mL
same,solubility at 20 h,[4]; Ultrapure water,36 µg/mL
same,Solubility relative to Compound 1,[4]; basic solution,up to 30 times
same,Solubility compared to Compound 1 (in words),[4]; basic solutions (pH>7) and mildly acidic conditions,higher solubility compared to Compound 1
"O=C(O)CCC(=O)OCn1c(=NC(=O)c2ccc(Cl)cc2)sn(Cc2ccc(Cl)cc2)c1=O (stereo in doubt) [Compound 3, 4-({(5Z)-5-[(4-chlorobenzoyl)imino]-2-[(4-chlorophenyl)methyl]-3-oxo-1,2,4-thiadiazolidin-4-yl}methoxy)-4-oxobutanoic acid]",Increase in systemic exposure of Compound 1 after oral Compound 3 compared to administration of Compound 1,"[1]; equimolar oral doses, rats",two-fold
same,ratio between p-T172 AMPK and non-phosphorylated AMPK,"[5]; 2.5 μM, 4 h, 0.1% DMSO",1.62
same,ratio between p-T172 AMPK and non-phosphorylated AMPK,"[5]; 5 μM, 4 h, 0.1% DMSO",1.88
same,ratio between p-T172 AMPK and non-phosphorylated AMPK,"[5]; 10 μM, 4 h, 0.1% DMSO",2.95
same,Phosphorylation of AMPK (T172) / AMPK activation (in words),[5],increase phosphorylation of AMPK in a dose-dependent manner; also recorded: increase phosphorylated-T172 AMPK in a dose-dependent manner
same,% remaining compared to 0.0 min,[2]; 0.0 min,100.00%
same,% remaining compared to 0.0 min,[2]; 15 min,86.96%
same,% remaining compared to 0.0 min,[2]; 30 min,93.61%
same,% remaining compared to 0.0 min,[2]; 60 min,88.74%
same,% remaining compared to 0.0 min,[2]; 120 min,75.40%
same,Stability compared to Compound 1 (in words),[2],comparable stability to Compound 1
CN(C)C(=N)N=C(N)N [metformin],Effect on pain (in words),[3],effective at treating pain
